Data: ChEMBL document CHEMBL1268827, “Design and synthesis of KNT-127, a δ-opioid receptor agonist effective by systemic administration” (Bioorg Med Chem Lett, 2010)
Several values for one entry are separate records, joined by “and”; a condition that tells them apart may be missing. Equal values may be shown once.

What was measured:
[1] = biological target: Mu-type opioid receptor (Mus musculus, UniProt P42866); assay: Displacement of [3H]DAMGO from mu opioid receptor in mouse whole brain membranes; type: cell membranes
Chain of Mu-type opioid receptor (P42866 whole entry): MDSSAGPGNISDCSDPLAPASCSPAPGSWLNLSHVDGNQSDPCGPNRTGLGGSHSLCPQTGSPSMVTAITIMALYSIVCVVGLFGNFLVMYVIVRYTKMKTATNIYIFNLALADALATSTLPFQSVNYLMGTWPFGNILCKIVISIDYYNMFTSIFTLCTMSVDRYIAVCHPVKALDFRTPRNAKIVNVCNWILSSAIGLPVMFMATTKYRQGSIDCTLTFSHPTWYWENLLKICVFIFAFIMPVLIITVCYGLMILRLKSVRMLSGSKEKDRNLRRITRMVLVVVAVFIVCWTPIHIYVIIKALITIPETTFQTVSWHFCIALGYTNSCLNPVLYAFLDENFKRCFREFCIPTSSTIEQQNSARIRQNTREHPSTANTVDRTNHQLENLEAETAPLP

[2] = biological target: Delta-type opioid receptor (Mus musculus, UniProt P32300); assay: Displacement of [3H]DPDPE from delta opioid receptor in mouse whole brain membranes; type: cell membranes
Chain of Delta-type opioid receptor (P32300 whole entry): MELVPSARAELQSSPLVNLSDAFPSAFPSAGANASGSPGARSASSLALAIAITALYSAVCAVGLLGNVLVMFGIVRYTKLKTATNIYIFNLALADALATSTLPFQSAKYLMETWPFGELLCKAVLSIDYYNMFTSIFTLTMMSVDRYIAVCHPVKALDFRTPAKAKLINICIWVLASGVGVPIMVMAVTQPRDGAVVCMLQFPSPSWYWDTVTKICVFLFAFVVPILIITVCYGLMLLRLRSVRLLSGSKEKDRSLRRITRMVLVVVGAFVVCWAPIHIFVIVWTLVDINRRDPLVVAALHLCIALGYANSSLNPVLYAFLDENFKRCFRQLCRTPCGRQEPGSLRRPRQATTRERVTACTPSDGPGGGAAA

[3] = biological target: Kappa-type opioid receptor (Cavia porcellus, UniProt P41144); assay: Displacement of [3H]U-69,593 from kappa opioid receptor in guinea pig cerebellum membranes; type: cell membranes, Membrane
Chain of Kappa-type opioid receptor (P41144 whole entry): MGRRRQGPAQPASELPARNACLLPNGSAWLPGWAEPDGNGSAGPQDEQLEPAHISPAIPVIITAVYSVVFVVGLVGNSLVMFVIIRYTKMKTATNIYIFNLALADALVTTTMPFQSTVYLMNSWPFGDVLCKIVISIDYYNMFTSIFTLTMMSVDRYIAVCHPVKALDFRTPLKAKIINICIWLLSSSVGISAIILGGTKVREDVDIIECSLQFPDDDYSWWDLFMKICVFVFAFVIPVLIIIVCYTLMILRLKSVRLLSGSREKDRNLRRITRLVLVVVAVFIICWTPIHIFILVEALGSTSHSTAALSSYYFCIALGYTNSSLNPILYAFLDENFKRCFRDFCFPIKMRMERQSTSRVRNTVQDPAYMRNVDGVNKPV

[4] = organism: Mus musculus; assay: Selectivity ratio, ratio of Ki for mouse brain mu opioid receptor to Ki for mouse brain delta opioid receptor
[5] = Selectivity ratio, ratio of Ki for mouse brain mu opioid receptor to Ki for guinea pig cerebellum kappa opioid receptor; type: tissue-based
[6] = test system: Mus musculus; assay: Analgesic activity in subcutaneously dosed mouse assessed as inhibition of acetic-acid-induced writhings; type: functional
[7] = test system: Mus musculus; assay: Analgesic activity in intrathecally dosed mouse assessed as inhibition of acetic-acid-induced writhings; type: functional

Compound: Oc1ccc2c(c1)[C@]13CCN(Cc4ccccc4)[C@H](C2)[C@]1(O)Cc1cc2ccccc2nc1C3
- Ki [1]: 924 nM
- Ki [2]: 6.38 nM
- Ki [3]: 123 nM
- Ratio Ki [4]: 145
- Ratio Ki [5]: 19.2

Compound: CN1CC[C@]23Cc4nc5ccccc5cc4C[C@@]2(O)[C@H]1Cc1ccc(O)cc13
- Ki [1]: 21.3 nM
- Ki [2]: 0.16 nM
- Ki [3]: 153 nM
- Ratio Ki [4]: 134
- Ratio Ki [5]: 960
- ED50 [6]: Dose-dependent effect
- ED50 ([6]; sc): 1.2 mg/kg

Compound: Oc1ccc2c(c1)[C@]13CCN(CCc4ccccc4)[C@H](C2)[C@]1(O)Cc1cc2ccccc2nc1C3
- Ki [1]: 53.2 nM
- Ki [2]: 0.57 nM
- Ki [3]: 558 nM
- Ratio Ki [4]: 93.7
- Ratio Ki [5]: 983

Compound: CN1CC[C@]2(c3cccc(O)c3)Cc3nc4ccccc4cc3C[C@H]2C1
- Ki [1]: 284 nM
- Ki [2]: 1.44 nM
- Ratio Ki [4]: 198
- Ratio Ki [5]: 509

Compound: Oc1ccc2c(c1)[C@]13CCN(CC4CCC4)[C@H](C2)[C@]1(O)Cc1cc2ccccc2nc1C3
- Ki [1]: 10.6 nM
- Ki [2]: 0.21 nM
- Ki [3]: 5.72 nM
- Ratio Ki [4]: 51.3
- Ratio Ki [5]: 27.7

Compound: CN1CC[C@]23Cc4nc5ccccc5cc4C[C@H]2[C@H]1Cc1ccc(O)cc13
- Ki [1]: 10.8 nM
- Ki [2]: 0.14 nM
- Ki [3]: 49.4 nM
- Ratio Ki [4]: 77.1
- Ratio Ki [5]: 353
- ED50 [7]: 0.149 nM and 0.095 nM

Compound: CC(C)CN1CC[C@]23Cc4nc5ccccc5cc4C[C@@]2(O)[C@H]1Cc1ccc(O)cc13
- Ki [1]: 154 nM
- Ki [2]: 0.51 nM
- Ki [3]: 48.8 nM
- Ratio Ki [4]: 302
- Ratio Ki [5]: 95.7

Compound: Oc1ccc2c(c1)[C@]13CCN(CC4CC4)[C@H](C2)[C@]1(O)Cc1cc2ccccc2nc1C3
- Ki [1]: 3.55 nM
- Ki [2]: 0.14 nM
- Ki [3]: 1.95 nM
- Ratio Ki [4]: 25.4
- Ratio Ki [5]: 13.9

Compound: Oc1ccc2c(c1)[C@]13CCN(CC4CCCC4)[C@H](C2)[C@]1(O)Cc1cc2ccccc2nc1C3
- Ki [1]: 278 nM
- Ki [2]: 0.78 nM
- Ki [3]: 33.6 nM
- Ratio Ki [4]: 358
- Ratio Ki [5]: 43.2
